Reference: PMC8083904 (ACS infectious diseases, 2020)

Tests used:
MEZ (Mtb malic enzyme) [1] = target: T1, MEZ (Mtb malic enzyme) (Mycobacterium tuberculosis, UniProt P9WK25); settings: read-out: Km or K0.5
MEZ (Mtb malic enzyme) [2] = target: T1, MEZ (Mtb malic enzyme)
MEZ (Mtb malic enzyme) [3] = target: T1, MEZ (Mtb malic enzyme); remark: listed apart in the source

T1 sequence (P9WK25 whole entry): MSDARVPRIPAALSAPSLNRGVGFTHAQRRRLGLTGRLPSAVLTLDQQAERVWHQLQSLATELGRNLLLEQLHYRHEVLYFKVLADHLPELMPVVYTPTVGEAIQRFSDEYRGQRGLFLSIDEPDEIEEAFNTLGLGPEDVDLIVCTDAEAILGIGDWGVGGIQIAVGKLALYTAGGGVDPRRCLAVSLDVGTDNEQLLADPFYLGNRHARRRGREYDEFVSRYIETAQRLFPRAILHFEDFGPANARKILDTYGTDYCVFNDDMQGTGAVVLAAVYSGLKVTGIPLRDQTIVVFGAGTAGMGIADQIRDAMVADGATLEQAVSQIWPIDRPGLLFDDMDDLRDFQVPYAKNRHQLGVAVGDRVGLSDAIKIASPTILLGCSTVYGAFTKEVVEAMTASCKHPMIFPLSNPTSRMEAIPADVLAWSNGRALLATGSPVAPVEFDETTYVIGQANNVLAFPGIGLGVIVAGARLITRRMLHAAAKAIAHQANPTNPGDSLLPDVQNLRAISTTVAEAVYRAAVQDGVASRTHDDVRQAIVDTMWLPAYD

| Compound | % activity of unmodified control (activation) (MEZ (Mtb malic enzyme) [2]) | other results |
| --- | --- | --- |
| O=C(O)C[C@H](O)C(=O)O [L-malate] | – | Km (MEZ (Mtb malic enzyme) [1]): 18.7 ± 0.5 mM |
| N[C@@H](CC(=O)O)C(=O)O [aspartate] | aspartate induced a smaller increase in activity, Figure 3A | – |
| O=C(O)/C=C/C(=O)O [fumarate] | 361% | – |
| O=C(O)CC(=O)C(=O)O [oxaloacetate] | – | % activity of control (inhibition) (MEZ (Mtb malic enzyme) [3]): 61% |
| O=C(O)CCC(=O)O [succinate] | 290% | – |
